Reference: patent publication US4529593A, “Use of gallium salts to treat disorders of calcium homeostasis” (Sloan-Kettering Institute for Cancer Research, priority 1984, dated 1985)

Tests used:
bone turnover = bone turnover in a patient with multiple myeloma and extensive bone destruction; assay type: in vivo; conditions: 200 mg/sq m/d×7 d infusion; for urine OH--Proline: previous 95.4; for urine Calcium: previous 618; for urine Phosphorus: previous 1630; for Urine Volume: previous 3640
Procedure: Summary: Patients with bone metastasis suffer progressive erosion of bone which causes pain, immobilization and fractures. Clinically, bone metastases are evaluated by sequential x-rays over a period of months to years. Other measures have recently been employed to measure bone turnover in patients with both cancer and non-cancerous bone resorption. In general, increased bone turnover is associated with increased loss of calcium into the urine and with increased excretion of hydroxyproline ([…]). Measurements of these parameters have been used to assess whether a new drug affects bone resorption (Siris, E. S. et al, New Engl J Med 302:310, 1980). We recently measured these parameters in a patient with multiple myeloma and extensive bone destruction who received gallium nitrate (200 mg/sq m/d×7 d by infusion).

[1] = oral absorption and excretion of gallium nitrate in the dog; assay type: in vivo; conditions: for plasma gallium concentration: single oral dose 1200 mg by gavage
Procedure: To evaluate the oral absorption and excretion of gallium nitrate, a concentrated solution of the drug was administered to a dog by oral gavage (total dose=1200 mg). Sequential plasma samples and the next 24 hour urinary volume were collected and assayed for gallium concentration by a flameless atomic absorption sprectrophotometer (Kelsen, D. P. et al, Cancer 46:2009, 1980).
The subsequent 24 hour urine volume was 183 ml and it contained a total amount of 1.13 mg of elemental gallium. Assuming similar patterns of excretion in humans and dogs, it is estimated that approximately 0.5-2% of an orally administered dose is absorbed and excreted into the urine.

animal and human tumors = conditions: certain animal and human tumors; Warrell 1983, Adamson 1975; cited from earlier work

## O=[N+]([O-])[O-].O=[N+]([O-])[O-].O=[N+]([O-])[O-].[Ga+3] [gallium nitrate]
Bone turnover; day 8
  urine OH--Proline: 19.0 mg/24 h
  urine Calcium: 97 mg/24 h
  urine Phosphorus: 419 mg/24 h
  Urine Volume: 3225 ml/24 h
Bone turnover; myeloma patient
  amount of calcium and hydroxyproline excretion: marked decrease
  bone pain: substantial decrease in bone pain
  effect upon the underlying disease: no effect upon the underlying disease
  requirement for narcotics: reduced requirement for narcotics
Bone turnover; treatment day 1
  urine OH--Proline: 76.0 mg/24 h
  urine Calcium: 502 mg/24 h
  urine Phosphorus: 567 mg/24 h
  Urine Volume: 4365 ml/24 h
Bone turnover; treatment day 4
  urine OH--Proline: 23.9 mg/24 h
  urine Calcium: 239 mg/24 h
  urine Phosphorus: 607 mg/24 h
  Urine Volume: 3620 ml/24 h
[1]; 70 kg human, extrapolated from dog data
  oral gallium nitrate dose estimated to achieve effective plasma levels: 0.5-20 gms
[1]; dog, oral 1200 mg
  toxic reaction: no toxic reaction
[1]; dog, oral 1200 mg, 24 hour urine
  total amount of elemental gallium in urine: 1.13 mg
[1]; dog, 0 hrs
  plasma gallium concentration: 0 µg/mL
[1]; dog, 0.25 hrs
  plasma gallium concentration: 0.5 µg/mL
[1]; dog, 0.5 hrs
  plasma gallium concentration: 1.25 µg/mL
[1]; dog, 1 hr
  plasma gallium concentration: 1.37 µg/mL
[1]; dog, 2 hrs
  plasma gallium concentration: 2.75 µg/mL
[1]; dog, 4 hrs
  plasma gallium concentration: 2.0 µg/mL
[1]; dog, 24 hrs
  plasma gallium concentration: 0.75 µg/mL
Animal and human tumors
  anticancer activity: modest anticancer activity
